Experimental data from article PMC12465524, “Cache: Utilizing ultra-large library screening in Rosetta to identify novel binders of the WD-repeat domain of Leucine-Rich Repeat Kinase 2” (Journal of Cheminformatics, 2025).

How the values were obtained:
[1] = target: T1, Leucine-Rich Repeat Kinase 2 (LRRK2) WDR40 domain (Homo sapiens, UniProt Q5S007); assay: SPR (not confirmed by orthogonal assays); assay type: binding
T1 construct: WDR40 domain
T1 sequence (Q5S007 2142-2527 limits assumed): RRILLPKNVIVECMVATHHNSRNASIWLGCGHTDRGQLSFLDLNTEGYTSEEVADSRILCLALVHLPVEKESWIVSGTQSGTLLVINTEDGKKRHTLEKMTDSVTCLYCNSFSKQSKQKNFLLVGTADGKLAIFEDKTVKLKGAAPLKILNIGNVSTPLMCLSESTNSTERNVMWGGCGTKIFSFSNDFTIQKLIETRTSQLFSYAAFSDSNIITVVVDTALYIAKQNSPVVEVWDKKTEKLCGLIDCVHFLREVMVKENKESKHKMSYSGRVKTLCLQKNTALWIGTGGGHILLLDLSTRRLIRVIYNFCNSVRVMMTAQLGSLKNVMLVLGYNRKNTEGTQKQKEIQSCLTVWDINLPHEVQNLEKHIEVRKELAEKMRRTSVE

[2] = target: T1, Leucine-Rich Repeat Kinase 2 (LRRK2) WDR40 domain; assay: SPR; weak DSF stabilization (ΔTm […] °C); assay type: binding

| Structure (SMILES) | Kd [1] | Kd [2] |
| --- | --- | --- |
| Cn1nnc(-c2ccccc2)c1CNc1cccc(-n2cnnn2)c1 [A, N-[(1-methyl-4-phenyl-1 H-1,2,3-triazol-5-yl)methyl]-3-(1 H-1,2,3,4-tetrazol-1-yl)-aniline] | 59 µM |  |
| CSc1ccc(CNc2cccc(-n3cnnn3)c2)cc1 [D, N-[4-(methylsulfanyl)phenyl]methyl-3-(1 H-1,2,3,4-tetrazol-1-yl)aniline] |  | 100 µM |
| O=c1[nH]c2ccc(CNc3cccc(-n4cnnn4)c3)cc2[nH]1 [B, compound B] | 35 µM |  |
